We go through 21 compounds from patent publication US4607114A, “Novel platinum complexes” (Nippon Kayaku Kabushiki Kaisha, priority 1983, dated 1986).

Data set [1] concerns mouse leukemia L-1210. Put plainly: Antitumor activity on mouse leukemia L-1210 (T/C percentage of survival). The format is in vivo. The note with it: i.p. once a day for 5 days, female CDF1 mouse. As for the experimental part:
(2) Test for antitumor activity on mouse leukemia L-1210.
Into 6-weeks-old female CDF1 mouse were inoculated 1×10^5 L-1210 cells, and each drug was administered intraperitoneally once a day for 5 consecutive days, starting 24 hours after the inoculation. Physiological saline was administered to a control group. From the average survival periods of the drug-treated group and the control group (abbreviated as T and C, respectively), T/C percentage (T/C×100) was determined.

Data set [2] relates to mouse leukemia L-1210 cells. Kind of data set: Inhibitory activity on multiplication of mouse leukemia L-1210 initially cultured cells. The format is cell-based. The following applies: 48 hours, 37° C., RPMI 1640 with 10% bovine fetal serum. As for the experimental part:
(1) Test for inhibitory activity on multiplication of mouse leukemia L-1210 initially cultured cells.
Mouse leukemia L-1210 cells collected from the abdominal cavities of DBA/2 mouse were incubated in a 5% CO2 incubator at 37° C. for 48 hours by using a RPMI 1640 medium containing 10% of bovine fetal serum and 5 μM of 2-mercaptoethanol.

The conditions of data set [3]: background statement; cited from earlier work.
The nature of data set [4]: Solubility in water.

Where two headings read alike, the source gives them in different places. A value given as a limit tells only on which side of the number the result lay.

`CCC(C)(N)CN.[Cl][Pt][Cl]` (stereo not drawn) [compound 4, cis-Dichloro-1,2-diamino-2-methylbutane platinum]: the Solubility in water was determined as 3500 µg/mL.
In turn, “cis-bis(Pyruvato)-1-amino-1-aminomethylcyclohexane platinum [compound 16]” came in with a Solubility in water greater than 2000 µg/mL.
For the compound `NCC1(N)CCCC1.[OH][Pt]([OH])([Cl])[Cl]` [compound 19, cis-Dichloro-trans-dihydroxy-1-amino-1-aminomethylcyclopentane platinum], the “Antitumor effect shown by T/C percentage” value was 138% in data set [1] (4 mg/kg); 174% in data set [1] (8 mg/kg); 323% in data set [1] (16 mg/kg); 113% in data set [1] (32 mg/kg); 80% in data set [1] (64 mg/kg). Besides, in data set [2], the IC50 (usually the concentration that gives 50% inhibition) came out at 0.60 µg/mL.
Regarding `NCC1(N)CCCCC1.[Cl][Pt]([Cl])([Cl])[Cl]` [compound 12, cis-Tetrachloro-1-amino-1-aminomethylcyclohexane platinum], the Solubility in water was greater than 15000 µg/mL. The “Antitumor effect shown by T/C percentage” value in data set [1] (0.5 mg/kg) is given as 137%. Further, in data set [1] (1 mg/kg), the “Antitumor effect shown by T/C percentage” value is 200%. In addition, in data set [1] (2 mg/kg), the “Antitumor effect shown by T/C percentage” value came to 259%. Also, in data set [1] (4 mg/kg), the “Antitumor effect shown by T/C percentage” value is reported as 224%. Further, the “Antitumor effect shown by T/C percentage” value in data set [1] (8 mg/kg) was 95%.
Turning to `CC(C)(N)CN.[Cl][Pt]([Cl])([Cl])[Cl]` [compound 3, cis-Tetrachloro-1,2-diamino-2-methylpropane platinum], the Solubility in water is greater than 12000 µg/mL. The “Antitumor effect shown by T/C percentage” value in data set [1] (1 mg/kg) was 127%. In addition, the “Antitumor effect shown by T/C percentage” value in data set [1] (2 mg/kg) was determined as 139%. For the same compound, the “Antitumor effect shown by T/C percentage” value in data set [1] (4 mg/kg) turned out to be 162%. For the same compound, the “Antitumor effect shown by T/C percentage” value in data set [1] (8 mg/kg) is 154%. Also, in data set [1] (16 mg/kg), the “Antitumor effect shown by T/C percentage” value came to 60%.
In the case of `N.N.[Cl][Pt][Cl]` [cis-Platin, cis-dichlorodiammineplatinum], in data set [3], the carcinostatic effect entry is listed as “very excellent”.
As for `NCC1(N)CCCCC1.[OH][Pt]([OH])([Cl])[Cl]` [compound 11, cis-Dichloro-trans-dihydroxy-1-amino-1-aminomethylcyclohexane platinum], the Solubility in water is greater than 2000 µg/mL. For the same compound, in data set [1] (4 mg/kg), the “Antitumor effect shown by T/C percentage” value turned out to be 162%. Moreover, the “Antitumor effect shown by T/C percentage” value in data set [1] (8 mg/kg) came out at 237%. Moreover, the “Antitumor effect shown by T/C percentage” value in data set [1] (16 mg/kg) is 275%. For the same compound, in data set [1] (32 mg/kg), the “Antitumor effect shown by T/C percentage” value is 108%. Also, in data set [1] (64 mg/kg), the “Antitumor effect shown by T/C percentage” value was 67%.
Turning to `NCC1(N)CCCC1.[Cl][Pt][Cl]` [compound 18, cis-Dichloro-1-amino-1-aminomethylcyclopentane platinum], the “Antitumor effect shown by T/C percentage” value in data set [1] (0.5 mg/kg) is 179%; in data set [1] (1 mg/kg) it was 226%; in data set [1] (2 mg/kg), 344%; in data set [1] (4 mg/kg), 141%; in data set [1] (8 mg/kg), 92%. The same compound gave an IC50 in data set [2] of 0.02 µg/mL.
In turn, `NCC1(N)CCCC1.O=C([O-])C(O)C(=O)[O-].[Pt+2]` [compound 23, cis-2-Hydroxymalonato-1-amino-1-aminomethylcyclopentane platinum] yielded a Solubility in water of 5000 µg/mL.
For the compound `CC1(C)C[NH][Pt]([Cl])([Cl])[NH]1` [compound 1, cis-Dichloro-1,2-diamino-2-methylpropane platinum], the Solubility in water came to 5000 µg/mL. Also, the “Antitumor effect shown by T/C percentage” value in data set [1] (1 mg/kg) is recorded as 133%. The “Antitumor effect shown by T/C percentage” value in data set [1] (2 mg/kg) was 171%. The “Antitumor effect shown by T/C percentage” value in data set [1] (4 mg/kg) stood at 206%. The “Antitumor effect shown by T/C percentage” value in data set [1] (8 mg/kg) is 124%. For the same compound, the “Antitumor effect shown by T/C percentage” value in data set [1] (16 mg/kg) is 51%.
As for `CCC(N)(CC)CN.[OH][Pt]([OH])([Cl])[Cl]` [compound 7, cis-Dichloro-trans-dihydroxy-1,2-diamino-2-ethylbutane platinum], the Solubility in water stood at 13000 µg/mL.
As to “cis-Dichloro-1,2-diamino-2-ethylbutane platinum [compound 5]”, the Solubility in water was greater than 2500 µg/mL. Further, the “Antitumor effect shown by T/C percentage” value in data set [1] (0.5 mg/kg) is on record as 135%. Also, the “Antitumor effect shown by T/C percentage” value in data set [1] (1 mg/kg) turned out to be 181%. Further, the “Antitumor effect shown by T/C percentage” value in data set [1] (2 mg/kg) was determined as 291%. Further, in data set [1] (4 mg/kg), the “Antitumor effect shown by T/C percentage” value is reported as 199%. Moreover, the “Antitumor effect shown by T/C percentage” value in data set [1] (8 mg/kg) amounted to 82%.
`[Cl][Pt]1([Cl])([Cl])([Cl])[NH]CC2(CCCC2)[NH]1` [compound 20, cis-Tetrachloro-1-amino-1-aminomethyl cyclopentane platinum] displayed a Solubility in water of 18000 µg/mL.
The compound `O=C(CCl)[O][Pt]1([O]C(=O)CCl)[NH]CC2(CCCCC2)[NH]1` [compound 15, cis-bis(Chloroacetato)-1-amino-1-aminomethylcyclohexane platinum] yielded a Solubility in water greater than 1500 µg/mL. For the same compound, the “Antitumor effect shown by T/C percentage” value in data set [1] (0.5 mg/kg) is given as 135%. Moreover, in data set [1] (1 mg/kg), the “Antitumor effect shown by T/C percentage” value came out at 175%. Further, the “Antitumor effect shown by T/C percentage” value in data set [1] (2 mg/kg) was determined as 200%. The “Antitumor effect shown by T/C percentage” value in data set [1] (4 mg/kg) is recorded as 299%. The “Antitumor effect shown by T/C percentage” value in data set [1] (8 mg/kg) is recorded as 130%.
Compound “cis-Oxalato-1-amino-1-aminomethylcyclohexane platinum [compound 13]” displayed a Solubility in water greater than 2500 µg/mL. In addition, the “Antitumor effect shown by T/C percentage” value in data set [1] (0.5 mg/kg) came to 146%. Besides, the “Antitumor effect shown by T/C percentage” value in data set [1] (1 mg/kg) is listed as 188%. In addition, in data set [1] (2 mg/kg), the “Antitumor effect shown by T/C percentage” value is 296%. Besides, the “Antitumor effect shown by T/C percentage” value in data set [1] (4 mg/kg) is given as 230%. Besides, the “Antitumor effect shown by T/C percentage” value in data set [1] (8 mg/kg) worked out at 218%. In data set [2], this compound registered an IC50 of 0.021 µg/mL.
`CCC(N)(CC)CN.O=C([O-])C(O)C(=O)[O-].[Pt+2]` [compound 10, cis-2-Hydroxymalonato-1,2-diamino-2-ethylbutane platinum]: the Solubility in water turned out to be 16000 µg/mL.
`CCC1C(=O)[O][Pt]2([NH]CC(CC)(CC)[NH]2)[O]C1=O` (stereo not drawn) [compound 9, cis-2-Ethylmalonato-1,2-diamino-2-ethylbutane platinum] registered a Solubility in water of 25000 µg/mL.
In the case of `NCC1(N)CCCC1.O=C([O-])C(=O)[O-].[Pt+2]` [compound 21, cis-Oxalato-1-amino-1-aminomethylcyclopentane platinum], the “Antitumor effect shown by T/C percentage” value is on record as 124% in data set [1] (0.5 mg/kg); 141% in data set [1] (1 mg/kg); 161% in data set [1] (2 mg/kg); 189% in data set [1] (4 mg/kg); 166% in data set [1] (8 mg/kg).
`CCC(N)(CC)CN.O=C([O-])C(=O)[O-].[Pt+2]` [compound 6, cis-Oxalato-1,2-diamino-2-ethylbutane platinum]: the “Antitumor effect shown by T/C percentage” value in data set [1] (1 mg/kg) came out at 130%; in data set [1] (2 mg/kg), 152%; in data set [1] (4 mg/kg), 226%; in data set [1] (8 mg/kg) it was 206%; in data set [1] (16 mg/kg), 211%.
As to `CCC(C(=O)[O-])C(=O)[O-].NCC1(N)CCCCC1.[Pt+2]` [compound 17, cis-2-Ethylmalonato-1-amino-1-aminomethyl cyclohexane platinum], the Solubility in water in data set [4] is 8000 µg/mL.
Turning to `CCC(N)(CC)CN.[Cl][Pt]([Cl])([Cl])[Cl]` [compound 8, cis-Tetrachloro-1,2-diamino-2-ethylbutane platinum], the Solubility in water came out at 5000 µg/mL.
